What all share (format): in vivo, mouse
Assay [1] concerns aged mice. In words: Pulse wave velocity (arterial stiffness) in aged mice. The conditions noted are these: 10 mg/kg/day IP, 2 weeks treatment. How it is done:
(§1) Animal study protocols. This example was performed according to the guide lines of the National Institute of Health on the care and use of laboratory animals and approved by the institutional Animal Care and Use Committee of University of Oklahoma Health Science Center. AU mice were housed in cages at room temperature (2S±PC) and were provided with Purina laboratory chow No 5001) and tap Water and lithium. 6 adult mice (12 months) and 20 old mice (24-26 months) mice were next in this study. The old (aged) mice were randomly divided into three subgroups and each group had 6 or 7 mice. […] The third group received no treatment Blood pressure was measured before and after treatment with the active agent at 1 week and 2 week. Pulse wave velocity (PWV) was measured after 2 weeks treatment with active agent all animals were sacrificed and perfused transcardially with PBS under deep anesthesia (ketamine xylazine, 90/10 mg, IP). […]
Measurement of Pulse Wave Velocity: Aortic PWV was measured as described previously. […] Velocities were measured with 6-mm crystal […] Doppler probes (Indus Instruments, Webster, TX) at the transverse aortic arch and 3.5 cm distal in the abdominal aorta and collected using Doppler signal processing workstation (Indus instruments). […]

In assay [2] the test system is aged mice. Description: Blood pressure by VPR tail-cuff method in aged mice. As for the experimental part: (§2) Animal study protocols. This example was performed according to the guide lines of the National Institute of Health on the care and use of laboratory animals and approved by the institutional Animal Care and Use Committee of University of Oklahoma Health Science Center. AU mice were housed in cages at room temperature (2S±PC) and were provided with Purina laboratory chow No 5001) and tap Water and lithium. 6 adult mice (12 months) and 20 old mice (24-26 months) mice were next in this study. The old (aged) mice were randomly divided into three subgroups and each group had 6 or 7 mice. One subgroup received compound H (10 mg/kg/day1, IP, Enamine LLC, Monmouth Jct., NJ) and one group received an equal volume of DMSO (dimethyl sulfoxide, 5%) and served as a control. The third group received no treatment Blood pressure was measured before and after treatment with the active agent at 1 week and 2 week. Pulse wave velocity (PWV) was measured after 2 weeks treatment with active agent all animals were sacrificed and perfused transcardially with PBS under deep anesthesia (ketamine xylazine, 90/10 mg, IP). The aortas were then quickly removed, washed and cut into pieces for subsequent analyses.
Measurement of Blood Pressure: Blood pressure was measured by the volume-pressure recording (VPR) tail-cuff method with slight (28° C.) but not heating of the tail using it CODA none-invasive blood pressure monitoring system (Kent Scientific). This method of measurement has been validated by using a telemetry system. Animals were gently handled and trained for the VPR tail-cuff measurement to minimize handling stress. No signs of stress were observed during BP measurements. The operator was also strictly trained for the measurement procedure. At least 20 stable cycles data were obtained for the result analysis for each measurement.

A further assay concerns DNA methyltransferase. In words: DNA methyltransferase activity in aged mice. As to conditions: 2 weeks treatment. How it is done: as §1
Measurement of DNA Demethylase and DNA Methylation force Activity. The DNA demethylase and DNA methyltransferase activity was measured by using DNA demethylase activity qualification kit (Abeam˜Cambridge, MA) and methyltransferase coloritnetxic assay kit (Cayman Chemical Company, Ann Arbor, Michigan). […] The absorbance was read at […] for DNA methylene activity assay and 510 nm for DNA methyltransferase activity using BioTeck Multi-Mole Microplate Readers.

Another assay deals with secreted Klotho. Description: Western blot of secreted Klotho in kidney and serum of aged mice.
The subject of another assay is collagen-1. Description: Collagen in aortas of aged mice (staining and western blot). How it is done: as §1
(§3) Histological and Immunohistochemical Staining: Thoracic aortas were quickly excised and placed in cold (4′T) physiological saline solution. […] Aorta rings were post-fixed in 4% paraformaldehyde, embedded in paraffin and sectioned at […] thickness, Collagen was quantified by Masson' s trichrome staining as described previously. […] Blue-stained collagen areas were quantified with ImageJ (NIH, Bethesda, USA) film 4-5 regions per section. […]
For orientation: In western blotting, separated proteins are transferred to a membrane and probed.

A further assay concerns elastin. Description: Elastin in aortas of aged mice (immunostaining and western blot). How it is done: as §1, §3
For a further assay, the system named is MMP2. In words: Western blot of MMP2, aortas of aged mice. As for the experimental part:
as §2, with “The aortas were then quickly removed, washed and cut into pieces for subsequent analyses.” left out
(§4) Western Blot Analysis: Protein samples from the thoracic aorta were prepared in Lysis buffer as described previously. […] Protein abundance on western blots was quantified densitometry using Image lab software (Bio-Rad, Hercules, CA).

Another assay has as its system MMP9. Description: Western blot of MMP9, aortas of aged mice. How it is done: as §2, with “The aortas were then quickly removed, washed and cut into pieces for subsequent analyses.” left out
as §4

The next assay concerns TGF-β1. Description: Western blot of TGF-β1, aortas of aged mice. How it is done:
as §2, with “The aortas were then quickly removed, washed and cut into pieces for subsequent analyses.” left out
as §4

In the next assay the test system is TGF-β3. Description: Western blot of TGF-β3, aortas of aged mice. How it is done:
as §2, with “The aortas were then quickly removed, washed and cut into pieces for subsequent analyses.” left out
as §4

The next assay relates to RUNX2. Description: Western blot of RUNX2, aortas of aged mice. How it is done: as §2, with “The aortas were then quickly removed, washed and cut into pieces for subsequent analyses.” left out
as §4

The next assay concerns LC3. Description: Western blot of LC3 in aortas, hearts and kidneys of old mice.
The mark [3] stands for this setting: 10 mg/kg/day IP, 2 weeks treatment.

Consider `O=C(Nc1ccccc1Cl)c1c[nH]c2ccccc12` [active agent, N-(2-chlorophenyl)-Ul-indde-3-carboxamide], for which the “Pulse wave velocity (PWV)” value with aged mice [1] is given as “decreased”. For the same compound, in the assay on aged mice [2] (setting [3]), the Diastolic blood pressure result was “decreased”, the Mean blood pressure entry is on record as “decreased”, the Pulse pressure entry is listed as “decreased” and the Systolic blood pressure entry is “decreased”. Further, in the assay with aged mice [2] (after 1 week of treatment), the Blood pressure entry is “decreased”. Besides, the DNA methyltransferase activity result with DNA methyltransferase was “did not affect”. The “Secreted Klotho protein expression” value in the assay on secreted Klotho (kidney of 24-26 month-old mice) was “significantly increased”. Further, in the assay with secreted Klotho (serum of aged mice), the “Circulating levels of secreted Klotho” value is “markedly increased”. For the same compound, the Collagen production entry with collagen-1 is reported as “decreased”. In addition, the Elastin production entry with elastin is recorded as “increased”. Moreover, the MMP2 protein expression result in the assay with MMP2 was “decreased”. In addition, the MMP9 protein expression result with MMP9 is listed as “decreased”. Also, the TGF-β1 expression result in the assay on TGF-β1 is “decreased”. For the same compound, in the assay on TGF-β3, the TGF-β3 expression result was “decreased”. Besides, the RUNX2 expression result in the assay on RUNX2 is on record as “decreased”. Moreover, in the assay on LC3 (aortas of old mice), the LC3 expression result is on record as “did not affect”. Besides, the LC3 expression result in the assay with LC3 (hearts of old mice) is recorded as “did not affect”. In the assay on LC3 (kidneys of old mice), the LC3 expression entry is listed as “did not affect”.
